{"source": "paper doi:10.1101/2023.10.20.563248v1", "about": "(biorxiv, 2023)", "conditions_in_all_cases": "1 µM; inhibitor", "key": {"SIK1": {"target": "SIK1 (Homo sapiens, UniProt P57059)"}, "PDGFRa": {"target": "PDGFRa (Homo sapiens, UniProt P16234)"}, "INSRR": {"target": "INSRR (Homo sapiens, UniProt P14616)"}, "MAP3K1": {"target": "MAP3K1 (Homo sapiens, UniProt Q13233)", "sequence (Q13233 whole entry)": "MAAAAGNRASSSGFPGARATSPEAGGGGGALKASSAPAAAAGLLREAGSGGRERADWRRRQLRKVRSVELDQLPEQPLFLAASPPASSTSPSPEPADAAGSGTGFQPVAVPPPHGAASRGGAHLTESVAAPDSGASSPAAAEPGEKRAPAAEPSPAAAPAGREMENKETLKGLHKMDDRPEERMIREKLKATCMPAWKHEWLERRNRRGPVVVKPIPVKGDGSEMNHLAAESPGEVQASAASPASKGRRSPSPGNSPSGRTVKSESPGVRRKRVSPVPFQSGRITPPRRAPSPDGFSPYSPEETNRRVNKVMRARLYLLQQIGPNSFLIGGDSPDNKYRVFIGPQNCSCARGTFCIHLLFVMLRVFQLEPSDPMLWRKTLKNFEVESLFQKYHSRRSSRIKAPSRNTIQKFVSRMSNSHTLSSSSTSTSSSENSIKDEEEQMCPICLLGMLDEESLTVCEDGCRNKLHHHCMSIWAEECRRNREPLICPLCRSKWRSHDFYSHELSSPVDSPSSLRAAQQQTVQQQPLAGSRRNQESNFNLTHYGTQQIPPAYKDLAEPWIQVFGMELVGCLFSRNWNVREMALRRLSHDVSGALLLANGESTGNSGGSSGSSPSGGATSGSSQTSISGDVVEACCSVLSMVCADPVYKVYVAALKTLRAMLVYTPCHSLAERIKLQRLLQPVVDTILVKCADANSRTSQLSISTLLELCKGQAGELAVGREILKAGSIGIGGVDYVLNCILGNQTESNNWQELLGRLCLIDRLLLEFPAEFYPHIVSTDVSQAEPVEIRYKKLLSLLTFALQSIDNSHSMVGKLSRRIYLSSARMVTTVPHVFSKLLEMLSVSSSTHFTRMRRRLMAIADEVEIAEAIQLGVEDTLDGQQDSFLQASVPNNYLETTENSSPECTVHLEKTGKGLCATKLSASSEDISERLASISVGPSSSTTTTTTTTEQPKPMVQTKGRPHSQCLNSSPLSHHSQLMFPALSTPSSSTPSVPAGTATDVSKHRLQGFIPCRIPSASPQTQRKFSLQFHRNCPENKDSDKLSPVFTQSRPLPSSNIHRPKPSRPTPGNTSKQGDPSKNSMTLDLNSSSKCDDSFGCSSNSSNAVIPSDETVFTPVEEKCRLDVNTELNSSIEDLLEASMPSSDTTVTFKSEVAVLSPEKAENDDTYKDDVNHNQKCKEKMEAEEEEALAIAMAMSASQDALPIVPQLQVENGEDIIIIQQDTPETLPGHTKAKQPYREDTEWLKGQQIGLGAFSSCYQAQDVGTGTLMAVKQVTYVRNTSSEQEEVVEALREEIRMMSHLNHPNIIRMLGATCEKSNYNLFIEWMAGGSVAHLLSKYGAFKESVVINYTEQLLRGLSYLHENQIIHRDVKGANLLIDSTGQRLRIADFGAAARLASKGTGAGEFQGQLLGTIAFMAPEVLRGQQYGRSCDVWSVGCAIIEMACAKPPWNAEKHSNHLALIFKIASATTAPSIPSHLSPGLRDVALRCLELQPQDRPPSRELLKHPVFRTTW"}, "PLK1": {"target": "PLK1 (Homo sapiens, UniProt P53350)"}, "PHKG2": {"target": "PHKG2 (Homo sapiens, UniProt P15735)"}, "CDK3/CycC": {"target": "CDK3/CycC (Homo sapiens, UniProt Q00526)"}, "PIM2": {"target": "PIM2 (Homo sapiens, UniProt Q9P1W9)"}, "RPS6KB2": {"target": "RPS6KB2 (Homo sapiens, UniProt Q9UBS0)", "sequence (Q9UBS0 whole entry)": "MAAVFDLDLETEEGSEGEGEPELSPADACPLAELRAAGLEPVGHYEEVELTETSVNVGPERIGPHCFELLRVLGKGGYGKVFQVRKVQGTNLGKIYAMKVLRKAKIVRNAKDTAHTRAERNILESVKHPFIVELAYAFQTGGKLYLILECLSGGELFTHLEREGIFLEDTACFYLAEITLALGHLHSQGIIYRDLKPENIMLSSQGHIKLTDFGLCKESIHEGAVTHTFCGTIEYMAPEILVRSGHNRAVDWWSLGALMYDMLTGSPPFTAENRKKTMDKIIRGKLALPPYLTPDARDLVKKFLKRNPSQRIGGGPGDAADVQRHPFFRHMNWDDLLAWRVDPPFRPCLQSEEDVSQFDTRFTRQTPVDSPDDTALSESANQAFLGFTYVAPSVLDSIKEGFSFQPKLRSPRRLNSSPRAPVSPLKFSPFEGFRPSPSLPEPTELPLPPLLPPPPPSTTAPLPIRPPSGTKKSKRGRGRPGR"}, "TAOK3": {"target": "TAOK3 (Homo sapiens, UniProt Q9H2K8)"}, "MTOR": {"target": "MTOR (Homo sapiens, UniProt P42345)"}, "BUB1B": {"target": "BUB1B (Homo sapiens, UniProt O60566)"}, "CDK9/CycT1": {"target": "CDK9/CycT1 (Homo sapiens, UniProt P50750)"}, "CLK3": {"target": "CLK3 (Homo sapiens, UniProt P49761)"}, "CDK18": {"target": "CDK18 (Homo sapiens, UniProt Q07002)"}, "MST2": {"target": "MST2 (Homo sapiens, UniProt Q13188)"}, "VRK2": {"target": "VRK2 (Homo sapiens, UniProt Q86Y07)"}, "CLK4": {"target": "CLK4 (Homo sapiens, UniProt Q9HAZ1)"}, "p38d": {"target": "p38d (Homo sapiens, UniProt O15264)"}, "PKCbeta2": {"target": "PKCbeta2 (Homo sapiens, UniProt P05771)"}, "MKK4": {"target": "MKK4 (Homo sapiens, UniProt P45985)"}, "MUSK": {"target": "MUSK (Homo sapiens, UniProt O15146)"}, "JNK3": {"target": "JNK3 (Homo sapiens, UniProt P53779)", "sequence (P53779 whole entry)": "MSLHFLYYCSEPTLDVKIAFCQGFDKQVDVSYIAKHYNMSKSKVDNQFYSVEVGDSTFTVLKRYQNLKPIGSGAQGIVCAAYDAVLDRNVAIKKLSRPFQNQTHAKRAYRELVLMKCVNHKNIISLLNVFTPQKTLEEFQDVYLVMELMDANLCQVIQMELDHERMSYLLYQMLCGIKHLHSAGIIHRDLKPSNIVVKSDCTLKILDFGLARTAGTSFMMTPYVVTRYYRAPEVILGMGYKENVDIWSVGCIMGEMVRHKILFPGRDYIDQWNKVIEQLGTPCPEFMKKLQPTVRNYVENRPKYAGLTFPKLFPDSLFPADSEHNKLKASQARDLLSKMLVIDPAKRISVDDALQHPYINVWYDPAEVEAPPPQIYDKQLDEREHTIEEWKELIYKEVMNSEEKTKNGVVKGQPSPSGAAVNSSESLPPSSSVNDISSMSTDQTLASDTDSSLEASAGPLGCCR"}, "TRKA": {"target": "TRKA (Homo sapiens, UniProt P04629)"}, "SAK": {"target": "SAK (Homo sapiens, UniProt O00444)"}, "PKA": {"target": "PKA (Homo sapiens, UniProt P17612)"}, "DDR2": {"target": "DDR2 (Homo sapiens, UniProt Q16832)"}, "CDK3": {"target": "CDK3 (Homo sapiens, UniProt Q00526)"}, "EPHA6": {"target": "EPHA6 (Homo sapiens, UniProt Q9UF33)"}, "ABL1": {"target": "ABL1 (Homo sapiens, UniProt P00519)", "sequence (P00519 whole entry)": "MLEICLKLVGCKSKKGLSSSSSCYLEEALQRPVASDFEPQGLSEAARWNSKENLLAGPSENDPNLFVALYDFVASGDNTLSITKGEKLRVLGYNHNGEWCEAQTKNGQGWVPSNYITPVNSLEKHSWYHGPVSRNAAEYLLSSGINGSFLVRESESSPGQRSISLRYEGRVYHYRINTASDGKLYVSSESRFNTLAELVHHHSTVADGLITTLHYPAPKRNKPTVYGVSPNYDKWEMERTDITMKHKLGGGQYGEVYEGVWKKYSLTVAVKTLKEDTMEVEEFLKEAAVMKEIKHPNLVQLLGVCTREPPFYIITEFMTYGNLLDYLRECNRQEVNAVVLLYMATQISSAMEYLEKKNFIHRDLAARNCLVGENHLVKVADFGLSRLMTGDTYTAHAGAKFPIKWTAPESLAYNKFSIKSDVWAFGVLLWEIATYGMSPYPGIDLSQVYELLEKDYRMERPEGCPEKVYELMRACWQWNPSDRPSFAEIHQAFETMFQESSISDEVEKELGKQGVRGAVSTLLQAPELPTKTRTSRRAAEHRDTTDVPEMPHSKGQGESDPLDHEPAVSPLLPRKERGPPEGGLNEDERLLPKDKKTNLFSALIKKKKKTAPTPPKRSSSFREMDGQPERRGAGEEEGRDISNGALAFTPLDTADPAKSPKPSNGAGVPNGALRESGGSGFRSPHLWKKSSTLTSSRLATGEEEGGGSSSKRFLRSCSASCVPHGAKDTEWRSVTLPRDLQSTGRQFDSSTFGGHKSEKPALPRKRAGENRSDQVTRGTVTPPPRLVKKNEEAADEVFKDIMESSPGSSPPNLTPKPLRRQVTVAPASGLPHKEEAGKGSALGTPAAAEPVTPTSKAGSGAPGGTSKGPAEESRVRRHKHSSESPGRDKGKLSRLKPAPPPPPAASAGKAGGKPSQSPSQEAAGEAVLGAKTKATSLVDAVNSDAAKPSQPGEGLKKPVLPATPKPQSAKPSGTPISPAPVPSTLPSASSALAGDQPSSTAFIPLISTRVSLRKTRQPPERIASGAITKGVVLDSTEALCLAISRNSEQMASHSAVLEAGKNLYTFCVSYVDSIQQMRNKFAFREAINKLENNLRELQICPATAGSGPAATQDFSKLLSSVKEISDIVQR"}, "MET": {"target": "MET (Homo sapiens, UniProt P08581)", "sequence (P08581 whole entry)": "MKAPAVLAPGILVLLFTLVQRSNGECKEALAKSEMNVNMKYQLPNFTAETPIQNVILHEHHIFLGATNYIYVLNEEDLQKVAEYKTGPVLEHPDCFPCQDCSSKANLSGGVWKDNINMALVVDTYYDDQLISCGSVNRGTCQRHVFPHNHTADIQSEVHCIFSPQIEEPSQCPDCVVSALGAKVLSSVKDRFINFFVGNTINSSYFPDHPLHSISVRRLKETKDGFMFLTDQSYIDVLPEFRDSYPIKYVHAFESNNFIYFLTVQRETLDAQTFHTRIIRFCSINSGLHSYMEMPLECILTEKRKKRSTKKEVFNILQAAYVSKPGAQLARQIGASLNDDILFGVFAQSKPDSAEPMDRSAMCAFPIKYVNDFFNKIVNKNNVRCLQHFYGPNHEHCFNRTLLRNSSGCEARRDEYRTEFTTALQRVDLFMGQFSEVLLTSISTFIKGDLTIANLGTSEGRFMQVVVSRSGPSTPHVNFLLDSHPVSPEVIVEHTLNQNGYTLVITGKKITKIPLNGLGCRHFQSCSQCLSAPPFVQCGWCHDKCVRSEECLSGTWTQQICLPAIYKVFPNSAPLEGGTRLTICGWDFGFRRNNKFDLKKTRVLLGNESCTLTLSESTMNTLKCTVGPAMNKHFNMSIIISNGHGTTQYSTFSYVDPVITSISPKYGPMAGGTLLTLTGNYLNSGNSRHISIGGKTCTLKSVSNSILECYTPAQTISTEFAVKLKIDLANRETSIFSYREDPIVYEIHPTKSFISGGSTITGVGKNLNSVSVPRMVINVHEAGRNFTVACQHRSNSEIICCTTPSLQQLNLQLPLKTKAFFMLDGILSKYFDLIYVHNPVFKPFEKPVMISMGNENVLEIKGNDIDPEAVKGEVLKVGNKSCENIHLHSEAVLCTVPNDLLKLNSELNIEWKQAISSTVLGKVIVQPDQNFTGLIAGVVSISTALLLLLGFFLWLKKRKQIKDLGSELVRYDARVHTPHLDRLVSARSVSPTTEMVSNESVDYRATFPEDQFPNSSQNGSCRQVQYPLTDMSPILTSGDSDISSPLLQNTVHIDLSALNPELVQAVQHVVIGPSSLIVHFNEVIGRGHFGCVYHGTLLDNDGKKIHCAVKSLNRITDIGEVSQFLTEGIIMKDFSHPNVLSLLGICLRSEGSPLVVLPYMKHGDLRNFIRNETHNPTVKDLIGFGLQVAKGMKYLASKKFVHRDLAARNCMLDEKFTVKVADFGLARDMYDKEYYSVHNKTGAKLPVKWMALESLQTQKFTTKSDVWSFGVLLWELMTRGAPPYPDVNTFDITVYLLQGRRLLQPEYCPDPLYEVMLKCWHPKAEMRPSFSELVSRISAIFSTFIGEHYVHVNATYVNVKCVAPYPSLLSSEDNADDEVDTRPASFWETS"}}}
{"compound": "O=C1NCCCCCNc2nc(c3ccccc3n2)Nc2cc1[nH]n2", "note": "[21c, (Z)-3^1H-2,5,11-triaza-1(4,2)-quinazolina-3(3,5)-pyrazolacycloundecaphan-4-one]", "values": [{"measurement": "21c Remaining activity, percent of control [%]", "setting": "SIK1", "value": 86.3, "unit": "%"}, {"measurement": "21c Remaining activity, percent of control [%]", "setting": "PDGFRa", "value": 102.0, "unit": "%"}, {"measurement": "21c Remaining activity, percent of control [%]", "setting": "INSRR", "value": 96.5, "unit": "%"}, {"measurement": "21c Remaining activity, percent of control [%]", "setting": "MAP3K1", "value": 100.1, "unit": "%"}, {"measurement": "21c Remaining activity, percent of control [%]", "setting": "PLK1", "value": 89.3, "unit": "%"}, {"measurement": "21c Remaining activity, percent of control [%]", "setting": "PHKG2", "value": 98.0, "unit": "%"}, {"measurement": "21c Remaining activity, percent of control [%]", "setting": "CDK3/CycC", "value": 87.0, "unit": "%"}, {"measurement": "21c Remaining activity, percent of control [%]", "setting": "PIM2", "value": 103.1, "unit": "%"}, {"measurement": "21c Remaining activity, percent of control [%]", "setting": "RPS6KB2", "value": 99.0, "unit": "%"}, {"measurement": "21c Remaining activity, percent of control [%]", "setting": "TAOK3", "value": 102.4, "unit": "%"}, {"measurement": "21c Remaining activity, percent of control [%]", "setting": "MTOR", "value": 99.2, "unit": "%"}, {"measurement": "21c Remaining activity, percent of control [%]", "setting": "BUB1B", "value": 101.6, "unit": "%"}, {"measurement": "21c Remaining activity, percent of control [%]", "setting": "CDK9/CycT1", "value": 85.7, "unit": "%"}, {"measurement": "21c Remaining activity, percent of control [%]", "setting": "CLK3", "value": 88.6, "unit": "%"}, {"measurement": "21c Remaining activity, percent of control [%]", "setting": "CDK18", "value": 96.7, "unit": "%"}, {"measurement": "21c Remaining activity, percent of control [%]", "setting": "MST2", "value": 95.6, "unit": "%"}, {"measurement": "21c Remaining activity, percent of control [%]", "setting": "VRK2", "value": 96.9, "unit": "%"}, {"measurement": "21c Remaining activity, percent of control [%]", "setting": "CLK4", "value": 76.4, "unit": "%"}, {"measurement": "21c Remaining activity, percent of control [%]", "setting": "p38d", "value": 94.8, "unit": "%"}, {"measurement": "21c Remaining activity, percent of control [%]", "setting": "PKCbeta2", "value": 100.8, "unit": "%"}, {"measurement": "21c Remaining activity, percent of control [%]", "setting": "MKK4", "value": 127.3, "unit": "%"}, {"measurement": "21c Remaining activity, percent of control [%]", "setting": "MUSK", "value": 83.0, "unit": "%"}, {"measurement": "21c Remaining activity, percent of control [%]", "setting": "JNK3", "value": 84.9, "unit": "%"}, {"measurement": "21c Remaining activity, percent of control [%]", "setting": "TRKA", "value": 90.8, "unit": "%"}, {"measurement": "21c Remaining activity, percent of control [%]", "setting": "SAK", "value": 86.5, "unit": "%"}, {"measurement": "21c Remaining activity, percent of control [%]", "setting": "PKA", "value": 96.3, "unit": "%"}, {"measurement": "21c Remaining activity, percent of control [%]", "setting": "DDR2", "value": 103.0, "unit": "%"}, {"measurement": "21c Remaining activity, percent of control [%]", "setting": "CDK3", "value": 95.9, "unit": "%"}, {"measurement": "21c Remaining activity, percent of control [%]", "setting": "EPHA6", "value": 97.4, "unit": "%"}, {"measurement": "21c Remaining activity, percent of control [%]", "setting": "ABL1", "value": 106.1, "unit": "%"}, {"measurement": "21c Remaining activity, percent of control [%]", "setting": "MET", "value": 107.2, "unit": "%"}]}
